Test results as given in patent publication US9771370B2, “Compounds for the inhibition of indoleamine-2,3-dioxygenase” (Merck Patent GmbH, priority 2014, dated 2017).

Target: Recombinant human IDO (Homo sapiens, UniProt P14902)
Assay: Bridge-IT tryptophan fluorescence assay of human IDO-1 inhibition
Type: biochemical
Conditions: recombinant human IDO 7.5 nM, L-tryptophan
How it was run: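 One variant ran L-Trp at 100 μM for 90 min at 37 °C. The other pre-incubated compound for 30 min at 25 °C, then ran 50 μM L-Trp for 60 min at 25 °C.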

Sequence of Recombinant human IDO (P14902 whole entry): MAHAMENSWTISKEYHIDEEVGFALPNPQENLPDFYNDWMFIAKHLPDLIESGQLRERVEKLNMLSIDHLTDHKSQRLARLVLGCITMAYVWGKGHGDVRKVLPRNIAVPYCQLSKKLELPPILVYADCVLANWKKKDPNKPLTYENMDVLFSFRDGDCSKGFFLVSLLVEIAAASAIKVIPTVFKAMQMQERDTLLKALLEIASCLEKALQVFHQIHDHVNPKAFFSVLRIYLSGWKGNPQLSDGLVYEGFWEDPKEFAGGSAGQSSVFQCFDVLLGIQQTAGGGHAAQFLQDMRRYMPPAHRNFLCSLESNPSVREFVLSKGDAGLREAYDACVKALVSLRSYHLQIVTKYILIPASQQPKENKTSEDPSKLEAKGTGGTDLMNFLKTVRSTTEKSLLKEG

## OC(CC1c2ncncc2-c2cncn21)C1CCCCC1 (single isomer, unassigned) [Compound 67b, 1-cyclohexyl-2-[4,6,9,11-tetraazatricyclo[6.4.0.0^[2,6]]dodeca-1(8),2,4,9,11-pentaen-7-yl]ethan-1-ol]
  IC50: > 1 µM

## OC(CC1c2ncncc2-c2cncn21)C1CCCCC1 (single isomer, unassigned) [Compound 67c, 1-cyclohexyl-2-[4,6,9,11-tetraazatricyclo[6.4.0.0^[2,6]]dodeca-1(8),2,4,9,11-pentaen-7-yl]ethan-1-ol]
  IC50: > 1 µM

## OC(CC1c2nc(OC3CC3)ccc2-c2cncn21)C1CCCCC1 (single isomer, unassigned) [Compound 68a, 1-cyclohexyl-2-[10-cyclopropoxy-4,6,9-triazatricyclo[6.4.0.0^[2,6]]dodeca-1(8),2,4,9,11-pentaen-7-yl]ethan-1-ol]
  IC50: 0.1 to 1 µM

## OC(CC1c2nc(OC3CC3)ccc2-c2cncn21)C1CCCCC1 (single isomer, unassigned) [Compound 68c, 1-cyclohexyl-2-[10-cyclopropoxy-4,6,9-triazatricyclo[6.4.0.0^[2,6]]dodeca-1(8),2,4,9,11-pentaen-7-yl]ethan-1-ol]
  IC50: > 1 µM

## OC(CC1c2nc(OC3CC3)ccc2-c2cncn21)C1CCC(F)(F)CC1 (single isomer, unassigned) [Compound 69a, 2-[10-cyclopropoxy-4,6,9-triazatricyclo[6.4.0.0^[2,6]]dodeca-1(8),2,4,9,11-pentaen-7-yl]-1-(4,4-difluorocyclohexyl)ethan-1-ol]
  IC50: 0.1 to 1 µM

## OC(CC1c2nc(OC3CC3)ccc2-c2cncn21)C1CCC(F)(F)CC1 (single isomer, unassigned) [Compound 69b, 2-[10-cyclopropoxy-4,6,9-triazatricyclo[6.4.0.0^[2,6]]dodeca-1(8),2,4,9,11-pentaen-7-yl]-1-(4,4-difluorocyclohexyl)ethan-1-ol]
  IC50: > 1 µM

## OC(CC1c2nc(OC3CC3)ccc2-c2cncn21)C1CCC(F)(F)CC1 (single isomer, unassigned) [Compound 69c, 2-[10-cyclopropoxy-4,6,9-triazatricyclo[6.4.0.0^[2,6]]dodeca-1(8),2,4,9,11-pentaen-7-yl]-1-(4,4-difluorocyclohexyl)ethan-1-ol]
  IC50: > 1 µM

## OC(CC1c2nc(OC3CC3)ccc2-c2cncn21)C1CCC(F)(F)CC1 (single isomer, unassigned) [Compound 69d, 2-[10-cyclopropoxy-4,6,9-triazatricyclo[6.4.0.0^[2,6]]dodeca-1(8),2,4,9,11-pentaen-7-yl]-1-(4,4-difluorocyclohexyl)ethan-1-ol]
  IC50: > 1 µM

## FC1(CCC2c3c(Cl)cccc3-c3cncn32)CCCCC1 (single isomer, unassigned) [Compound 70a, 6-chloro-5-[2-(1-fluorocyclohexyl)ethyl]-5H-imidazo[4,3-a]isoindole]
  IC50: > 1 µM

## FC1(CCC2c3c(Cl)cccc3-c3cncn32)CCCCC1 (single isomer, unassigned) [Compound 70b, 6-chloro-5-[2-(1-fluorocyclohexyl)ethyl]-5H-imidazo[4,3-a]isoindole]
  IC50: 0.1 to 1 µM

## OC1CCC(F)(CCC2c3c(Cl)cccc3-c3cncn32)CC1 (single isomer, unassigned) [Compound 71a, 4-[2-[6-chloro-5H-imidazo[4,3-a]isoindol-5-yl]ethyl]-4-fluorocyclohexan-1-ol]
  IC50: 0.1 to 1 µM

## OC1CCC(F)(CCC2c3c(Cl)cccc3-c3cncn32)CC1 (single isomer, unassigned) [Compound 71b, 4-[2-[6-chloro-5H-imidazo[4,3-a]isoindol-5-yl]ethyl]-4-fluorocyclohexan-1-ol]
  IC50: 0.1 to 1 µM

## OC1CCC(F)(CCC2c3c(Cl)cccc3-c3cncn32)CC1 (single isomer, unassigned) [Compound 71c, 4-[2-[6-chloro-5H-imidazo[4,3-a]isoindol-5-yl]ethyl]-4-fluorocyclohexan-1-ol]
  IC50: > 1 µM

## OC1CCC(F)(CCC2c3c(Cl)cccc3-c3cncn32)CC1 (single isomer, unassigned) [Compound 71d, 4-[2-[6-chloro-5H-imidazo[4,3-a]isoindol-5-yl]ethyl]-4-fluorocyclohexan-1-ol]
  IC50: < 0.1 µM

## FC1(F)CCC(F)(CCC2c3c(Cl)cccc3-c3cncn32)CC1 (single isomer, unassigned) [Compound 72a, 6-chloro-5-[2-(1,4,4-trifluorocyclohexyl)ethyl]-5H-imidazo[4,3-a]isoindole]
  IC50: > 1 µM

## FC1(F)CCC(F)(CCC2c3c(Cl)cccc3-c3cncn32)CC1 (single isomer, unassigned) [Compound 72b, 6-chloro-5-[2-(1,4,4-trifluorocyclohexyl)ethyl]-5H-imidazo[4,3-a]isoindole]
  IC50: 0.1 to 1 µM

## FC1(CCC2c3nc(C(F)(F)F)ccc3-c3cncn32)CCCCC1 (single isomer, unassigned) [Compound 76a, 7-[2-(1-fluorocyclohexyl)ethyl]-10-(trifluoromethyl)-4,6,9-triazatricyclo[6.4.0.0^[2,6]]dodeca-1(8),2,4,9,11-pentaene]
  IC50: > 1 µM

## FC1(CCC2c3nc(C(F)(F)F)ccc3-c3cncn32)CCCCC1 (single isomer, unassigned) [Compound 76b, 7-[2-(1-fluorocyclohexyl)ethyl]-10-(trifluoromethyl)-4,6,9-triazatricyclo[6.4.0.0^[2,6]]dodeca-1(8),2,4,9,11-pentaene]
  IC50: > 1 µM

## OC(CC1c2nc(C(F)(F)F)ccc2-c2cncn21)C1CCC(F)(F)CC1 (single isomer, unassigned) [Compound 77a, 1-(4,4-difluorocyclohexyl)-2-[10-(trifluoromethyl)-4,6,9-triazatricyclo[6.4.0.0^[2,6]]dodeca-1(8),2,4,9,11-pentaen-7-yl]ethan-1-ol]
  IC50: > 1 µM

## OC(CC1c2nc(C(F)(F)F)ccc2-c2cncn21)C1CCC(F)(F)CC1 (single isomer, unassigned) [Compound 77b, 1-(4,4-difluorocyclohexyl)-2-[10-(trifluoromethyl)-4,6,9-triazatricyclo[6.4.0.0^[2,6]]dodeca-1(8),2,4,9,11-pentaen-7-yl]ethan-1-ol]
  IC50: > 1 µM

## OC(CC1c2nc(C(F)(F)F)ccc2-c2cncn21)C1CCC(F)(F)CC1 (single isomer, unassigned) [Compound 77c, 1-(4,4-difluorocyclohexyl)-2-[10-(trifluoromethyl)-4,6,9-triazatricyclo[6.4.0.0^[2,6]]dodeca-1(8),2,4,9,11-pentaen-7-yl]ethan-1-ol]
  IC50: > 1 µM

## NC(=O)C1CCC(F)(CCC2c3ccccc3-c3cncn32)CC1 (single isomer, unassigned) [Compound 79a, 4-fluoro-4-[2-[5H-imidazo[4,3-a]isoindol-5-yl]ethyl]cyclohexane-1-carboxamide]
  IC50: > 1 µM

## NC(=O)C1CCC(F)(CCC2c3ccccc3-c3cncn32)CC1 (single isomer, unassigned) [Compound 79b, 4-fluoro-4-[2-[5H-imidazo[4,3-a]isoindol-5-yl]ethyl]cyclohexane-1-carboxamide]
  IC50: > 1 µM

## NC(=O)C1CCC(F)(CCC2c3ccccc3-c3cncn32)CC1 (single isomer, unassigned) [Compound 79c, 4-fluoro-4-[2-[5H-imidazo[4,3-a]isoindol-5-yl]ethyl]cyclohexane-1-carboxamide]
  IC50: < 0.1 µM
